Values of other authors in patent US20220370466A1, “REGIMENS FOR TREATING HIV INFECTIONS AND AIDS” (ViiV Healthcare Company, priority 2017, published 2022).
Like-named read-outs stand apart in the source and are kept apart here. Each block holds one compound with its values, some of them ahead of it.

Key:
CYP3A4 [1] = molecular target: T1, CYP3A4 (Homo sapiens, UniProt P08684)
P-gp = P-gp (Homo sapiens, UniProt P08183); conditions: in vitro
UGT1A1 = molecular target: T2, UGT1A1 (Homo sapiens, UniProt P22309)
T2 sequence (P22309 26-533): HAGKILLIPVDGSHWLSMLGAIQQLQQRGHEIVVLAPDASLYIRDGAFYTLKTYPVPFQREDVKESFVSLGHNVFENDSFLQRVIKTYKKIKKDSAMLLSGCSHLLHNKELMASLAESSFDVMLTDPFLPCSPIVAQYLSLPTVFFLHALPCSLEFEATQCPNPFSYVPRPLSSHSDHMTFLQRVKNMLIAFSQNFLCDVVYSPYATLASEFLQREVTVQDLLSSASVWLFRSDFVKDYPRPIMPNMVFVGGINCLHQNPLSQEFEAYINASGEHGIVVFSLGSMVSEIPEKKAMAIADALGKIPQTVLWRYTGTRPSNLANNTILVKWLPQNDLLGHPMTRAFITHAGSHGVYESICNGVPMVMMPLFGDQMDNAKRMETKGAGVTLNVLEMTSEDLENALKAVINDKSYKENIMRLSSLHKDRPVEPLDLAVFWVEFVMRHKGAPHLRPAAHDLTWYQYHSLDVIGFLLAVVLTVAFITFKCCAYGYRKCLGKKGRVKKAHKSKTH

BCRP = molecular target: T3, BCRP (Homo sapiens, UniProt Q9UNQ0); conditions: in vitro
T3 sequence (Q9UNQ0 1-655): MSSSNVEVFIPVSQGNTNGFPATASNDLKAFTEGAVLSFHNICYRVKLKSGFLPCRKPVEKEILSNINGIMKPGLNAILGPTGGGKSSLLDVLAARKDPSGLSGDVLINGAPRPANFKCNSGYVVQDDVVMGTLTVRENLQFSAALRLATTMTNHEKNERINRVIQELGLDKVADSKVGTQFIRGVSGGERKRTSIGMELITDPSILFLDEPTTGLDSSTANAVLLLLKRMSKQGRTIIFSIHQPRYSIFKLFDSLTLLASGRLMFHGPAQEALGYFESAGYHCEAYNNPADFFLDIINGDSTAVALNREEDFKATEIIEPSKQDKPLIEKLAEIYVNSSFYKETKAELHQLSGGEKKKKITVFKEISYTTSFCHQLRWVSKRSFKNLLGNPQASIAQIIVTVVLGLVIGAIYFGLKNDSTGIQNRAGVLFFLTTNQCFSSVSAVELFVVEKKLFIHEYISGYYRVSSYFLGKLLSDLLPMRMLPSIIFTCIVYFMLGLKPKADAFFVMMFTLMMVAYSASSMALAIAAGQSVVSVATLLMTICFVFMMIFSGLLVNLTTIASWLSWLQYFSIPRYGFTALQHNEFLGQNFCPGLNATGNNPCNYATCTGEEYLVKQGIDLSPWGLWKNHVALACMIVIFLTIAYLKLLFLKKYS

UGT1A9 = molecular target: T4, UGT1A9 (Homo sapiens, UniProt O60656); conditions: in vitro
T4 sequence (O60656 26-530): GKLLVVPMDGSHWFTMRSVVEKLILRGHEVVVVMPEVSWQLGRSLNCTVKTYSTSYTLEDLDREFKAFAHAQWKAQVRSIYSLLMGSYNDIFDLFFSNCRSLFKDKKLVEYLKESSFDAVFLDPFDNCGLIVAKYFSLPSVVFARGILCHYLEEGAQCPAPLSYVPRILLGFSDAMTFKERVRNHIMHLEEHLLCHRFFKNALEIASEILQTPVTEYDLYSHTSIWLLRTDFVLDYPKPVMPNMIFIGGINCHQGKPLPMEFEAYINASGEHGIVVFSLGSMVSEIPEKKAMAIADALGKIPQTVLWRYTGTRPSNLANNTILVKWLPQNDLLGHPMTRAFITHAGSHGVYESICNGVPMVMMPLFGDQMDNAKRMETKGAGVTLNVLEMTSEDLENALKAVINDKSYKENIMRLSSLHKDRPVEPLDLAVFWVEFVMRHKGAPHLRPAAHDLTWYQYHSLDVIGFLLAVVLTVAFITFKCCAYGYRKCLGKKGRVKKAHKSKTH

UGT1A3 = molecular target: T5, UGT1A3 (Homo sapiens, UniProt P35503); conditions: in vitro
T5 sequence (P35503 29-534): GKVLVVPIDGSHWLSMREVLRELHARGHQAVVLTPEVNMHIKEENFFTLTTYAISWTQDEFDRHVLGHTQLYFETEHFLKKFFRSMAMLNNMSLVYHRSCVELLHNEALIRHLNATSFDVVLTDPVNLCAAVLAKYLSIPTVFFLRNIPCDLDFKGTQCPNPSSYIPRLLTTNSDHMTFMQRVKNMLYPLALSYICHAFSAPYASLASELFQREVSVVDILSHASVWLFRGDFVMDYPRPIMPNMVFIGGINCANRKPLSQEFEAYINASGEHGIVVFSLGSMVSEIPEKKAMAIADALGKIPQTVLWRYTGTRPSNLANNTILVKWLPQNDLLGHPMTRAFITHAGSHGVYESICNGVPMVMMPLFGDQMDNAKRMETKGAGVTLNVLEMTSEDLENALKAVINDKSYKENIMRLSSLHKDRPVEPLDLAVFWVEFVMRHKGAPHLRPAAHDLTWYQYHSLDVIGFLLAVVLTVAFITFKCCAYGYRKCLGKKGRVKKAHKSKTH

[2] = tested on: cytochrome P450 (CYP) isozymes
CYP3A4 [3] = molecular target: T1, CYP3A4; remark: listed apart in the source
HIV-1 = conditions: lymphoblastoid cell lines, MAGI-CCR5 cell line, peripheral blood mononuclear cells
HIV [4] = conditions: CD4+ T-cells isolated from thirteen (13) persons
HIV [5] = conditions: monocyte-derived macrophages (MDMs)

T1 sequence (P08684 whole entry): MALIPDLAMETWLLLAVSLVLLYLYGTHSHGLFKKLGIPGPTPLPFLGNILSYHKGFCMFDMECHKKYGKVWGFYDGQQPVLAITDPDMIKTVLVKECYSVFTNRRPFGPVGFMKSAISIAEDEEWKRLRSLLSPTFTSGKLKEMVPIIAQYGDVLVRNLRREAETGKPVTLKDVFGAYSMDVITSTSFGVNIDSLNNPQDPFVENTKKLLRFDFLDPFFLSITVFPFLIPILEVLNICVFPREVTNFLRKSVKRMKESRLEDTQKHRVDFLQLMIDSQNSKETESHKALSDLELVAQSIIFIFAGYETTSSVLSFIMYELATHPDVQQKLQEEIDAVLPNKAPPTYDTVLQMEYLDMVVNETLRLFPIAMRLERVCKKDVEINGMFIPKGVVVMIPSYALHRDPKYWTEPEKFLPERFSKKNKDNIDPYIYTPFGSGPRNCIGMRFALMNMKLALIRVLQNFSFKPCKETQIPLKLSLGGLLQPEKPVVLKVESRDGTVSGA
P-gp, sequence (P08183 whole entry): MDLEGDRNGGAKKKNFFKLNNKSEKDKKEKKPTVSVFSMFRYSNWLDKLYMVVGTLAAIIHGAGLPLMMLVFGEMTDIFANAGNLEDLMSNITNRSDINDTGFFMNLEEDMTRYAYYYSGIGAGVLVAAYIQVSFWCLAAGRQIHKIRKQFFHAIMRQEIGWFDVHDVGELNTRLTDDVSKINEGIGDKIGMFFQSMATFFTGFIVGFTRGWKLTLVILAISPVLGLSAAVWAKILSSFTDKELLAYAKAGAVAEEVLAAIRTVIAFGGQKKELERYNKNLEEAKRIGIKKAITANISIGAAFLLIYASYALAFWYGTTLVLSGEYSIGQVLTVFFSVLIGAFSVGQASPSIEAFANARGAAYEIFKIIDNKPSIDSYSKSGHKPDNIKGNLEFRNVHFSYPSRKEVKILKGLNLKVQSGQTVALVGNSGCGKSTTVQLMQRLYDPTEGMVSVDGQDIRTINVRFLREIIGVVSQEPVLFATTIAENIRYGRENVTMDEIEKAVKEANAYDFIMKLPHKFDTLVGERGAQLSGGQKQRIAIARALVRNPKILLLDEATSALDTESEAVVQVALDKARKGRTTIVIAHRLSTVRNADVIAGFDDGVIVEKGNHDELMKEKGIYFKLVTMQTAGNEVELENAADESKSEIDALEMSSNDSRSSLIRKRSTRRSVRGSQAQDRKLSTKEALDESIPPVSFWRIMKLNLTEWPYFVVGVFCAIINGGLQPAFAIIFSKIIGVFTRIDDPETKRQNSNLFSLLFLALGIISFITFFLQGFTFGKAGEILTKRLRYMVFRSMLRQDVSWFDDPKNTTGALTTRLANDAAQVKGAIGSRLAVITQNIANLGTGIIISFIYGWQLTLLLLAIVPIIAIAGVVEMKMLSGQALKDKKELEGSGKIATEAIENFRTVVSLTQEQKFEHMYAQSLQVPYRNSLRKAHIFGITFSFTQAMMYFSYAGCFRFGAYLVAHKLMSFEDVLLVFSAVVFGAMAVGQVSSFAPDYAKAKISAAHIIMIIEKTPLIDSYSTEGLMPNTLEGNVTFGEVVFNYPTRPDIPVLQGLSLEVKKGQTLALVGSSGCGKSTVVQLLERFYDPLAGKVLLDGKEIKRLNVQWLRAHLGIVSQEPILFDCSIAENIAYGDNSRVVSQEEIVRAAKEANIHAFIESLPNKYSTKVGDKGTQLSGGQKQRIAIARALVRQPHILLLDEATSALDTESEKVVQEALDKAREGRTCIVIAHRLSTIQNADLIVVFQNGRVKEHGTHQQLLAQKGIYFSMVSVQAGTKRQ

metabolic clearance through CYP3A4 (CYP3A4 [1]): metabolically cleared | substrate of P-gp (P-gp): substrate | metabolic clearance through UGT1A1 (UGT1A1): metabolically cleared | substrate of BCRP (BCRP): substrate | substrate of UGT1A9 (UGT1A9): substrate | substrate of UGT1A3 (UGT1A3): substrate
SMILES: O=C(NCc1c(F)cc(F)cc1F)c1cn2c(c(O)c1=O)C(=O)N1[C@H]3CC[C@H](C3)O[C@@H]1C2 [Bictegravir, (2R,5S,13aR)-8-hidroxi-7,9-dioxo-N-[(2,4,6-trifluorofenil)metil]-2,3,4,5,7,9,13,13a-octahidro-2,5-metanopirido[1′,2′: 4,5]pirazino[2,1-b][1,3]oxazepina-10-carboxamida]

induction or inhibition of cytochrome P450 (CYP) isozymes [2]: demonstrates induction or inhibition | extent to which the drug is a substrate of CYP3A4 (CYP3A4 [3]): about 15%
SMILES: C[C@@H]1CCO[C@H]2Cn3cc(C(=O)NCc4ccc(F)cc4F)c(=O)c(O)c3C(=O)N12 [Dolutegravir, (4R,12a5)-N-[(2,4-difluorophenyl)methyl]-7-hydroxy-4-methyl-6,8-dioxo-3 ,4,12,12a-tetrahydro-2H-pyrido[5, 6]pyrazino[2,6-b][1,3]oxazine-9-carboxamide]

SMILES: Nc1nc(=O)n([C@@H]2CS[C@H](CO)O2)cc1F [Emtricitabine, 5-fluoro-1-(2R,5S)-[2-(hydroxymethyl)-1,3oxathiolan-5-yl]cytosine]
EC50 value against HIV-1 (HIV-1): 3 to 158 ng/mL | EC50 (HIV-1; read-out: EC50 value against HIV-1): 1.3 to 640 nM

SMILES: CC(C)OC(=O)[C@H](C)N[P@](=O)(CO[C@H](C)Cn1cnc2c(N)ncnc21)Oc1ccccc1 [TAF, L-alanine, N-[(S)-[[(1R)-2-(6-amino-9H-purin-9-yl)-1methylethoxy]methyl]phenoxyphosphinyl]-, 1-methylethyl ester, (2E)-2-butenedioate (2:1)]
EC50 (HIV [4]; read-out: mean EC50): 11 nM | EC50 (HIV [4]; read-out: median EC50): 10.2 nM | EC50 (HIV [5]; read-out: mean EC50): 9.7 nM | EC50 (HIV [5]; read-out: median EC50): 10.3 nM
